Source: US9684238B2, “Fluorene-type compound, photopolymerization initiator comprising said fluorene-type compound, and photosensitive composition containing said photopolymerization initiator” (TOKYO OHKA KOGYO CO., LTD., priority 2012, dated 2017)

Assays:
[1] = Evaluation 1: 20-μm pattern line width of transparent photosensitive composition; settings: for 20-μm pattern line width: transparent composition, initiator 0.4 mmol; for sensitivity to the active energy ray (in words): photopolymerization initiator containing the compound
Method: After that, the mixture was filtered with a membrane filter having an aperture of 5 μm to provide a photosensitive composition.
It should be noted that the fluorene-based compound as a photopolymerization initiator was used in such an amount that its molar quantity was kept constant in the respective examples and comparative examples.
The glass substrate after the application was dried with a fan dryer at 90° C. for 10 minutes. Thus, a coating film (photosensitive layer) was formed. Next, the film was exposed to light having an exposure energy quantity of 5 mJ/cm^2, 10 mJ/cm^2, 20 mJ/cm^2, 40 mJ/cm^2, 60 mJ/cm^2, or 80 mJ/cm^2 by using a high-pressure mercury lamp (manufactured by Karl Suss, trade name: “MASK ALIGNER”) through a negative mask (mask width: 20 μm). Next, the resultant was immersed in a 0.1 wt % aqueous solution of tetramethylammonium hydroxide (TMAH) and then rinsed with pure water. The remaining cured film was subjected to the following evaluation.
(§1) A larger value for the line width means higher sensitivity.

[2] = Absorption coefficient (absorbance of 0.001% solution in tetrahydrofuran); format: physicochemical; settings: for Λ max (absorption maximum wavelength): 0.001% (wt/vol) in tetrahydrofuran, from 280 nm to 400 nm; for Absorption coefficient at 365 nm / Absorption coefficient at Λ max: 0.001% (wt/vol) solution in tetrahydrofuran
Method: A 0.001% (wt/vol) solution of each of the compounds 1, 2, 4, 6, 8, 9, 11, 12, 13, 15, 16, D-1, D-3, D-4, D-7, D-8, D-9, D-12, D-14, D-15, D-20, C-1, and C-2 in tetrahydrofuran was prepared, and its absorbance was measured with a spectrophotometer (manufactured by Hitachi High-Technologies Corporation, trade name: “U-3900H”). An absorption maximum wavelength (Amax) at a wavelength of from 280 nm to 400 nm was read from an absorption spectrum obtained with the spectrophotometer.

[3] = Solubility in PGME, PGMEA and ethyl lactate; format: physicochemical; settings: room temperature; for Solubility Ethyl lactate: in 100 parts by weight of ethyl lactate; for Solubility PGMEA: in 100 parts by weight of propylene glycol monomethyl ether acetate; for Solubility PGME: in 100 parts by weight of propylene glycol monomethyl ether
Method: An evaluation for solubility was performed in accordance with the following evaluation criteria based on the dissolution amount.
A: 10 Parts by weight or more of the photopolymerization initiator is dissolved.
B: An amount in the range of from 5 parts by weight or more to less than 10 parts by weight of the photopolymerization initiator is dissolved.
C: An amount in the range of from 2 parts by weight or more to less than 5 parts by weight of the photopolymerization initiator is dissolved.
D: Less than 2 parts by weight of the photopolymerization initiator is dissolved.

[4] = Decomposition point by thermal analysis (TG-DTA); format: physicochemical; settings: 5.0 mg
Method: The compounds 1, 2, 4, 6, 8, 9, 11, 12, 13, 15, 16, D-1, D-3, D-4, D-7, D-8, D-9, D-12, D-14, D-15, D-20, C-1, and C-2 were each subjected to measurement with a thermal analysis apparatus (TG-DTA) (manufactured by Rigaku Corporation, trade name: “Thermo Plus EVO TG 8120”) by using 5.0 mg thereof.

[5] = Average transmittance of composition; format: physicochemical; settings: photosensitive composition, quartz cell, optical path length 1 cm
Method: The average transmittance (%) of each of the photosensitive resin compositions obtained in Examples 1 to 9, Examples 2-1 to 2-10, and Comparative Examples 1 and 2 in the range of from 400 nm to 700 nm was measured with a spectrophotometer (manufactured by Hitachi High-Technologies Corporation, trade name: “U-3900H”, quartz cell, optical path length; 1 cm).

[6] = Evaluation 3: 20-μm pattern line width of black photosensitive composition; settings: black composition (carbon black, cardo resin), initiator 0.4 mmol
Description: The mixture was filtered with a membrane filter having an aperture of 5 μm to provide a photosensitive composition.
Photosensitive compositions were each obtained in the same manner as in Example 10 except that the used fluorene-based compound and its usage were changed as shown in Table 5.
Each of the photosensitive compositions obtained in Examples 10 to 15, Examples 2-11 to 2-20, and Comparative Example 3 was applied onto a glass substrate with a spin coater (manufactured by Kyowariken Co., Ltd., trade name: “K-359SD1”) so that its thickness after drying became 1.0 μm. The glass substrate after the application was dried with a fan dryer at 90° C. for 10 minutes. Thus, a coating film (photosensitive layer) was formed. Next, the film was exposed to light having an exposure energy quantity of 10 mJ/cm^2, 20 mJ/cm^2, 40 mJ/cm^2, 60 mJ/cm^2, or 80 mJ/cm^2 by using a high-pressure mercury lamp (manufactured by Karl Suss, trade name: “MASK ALIGNER”) through a negative mask (mask width: 20 μm). Next, the resultant was immersed in a 0.1 wt % aqueous solution of tetra methyl ammonium hydroxide (TMAH) and then rinsed with pure water. The remaining cured film was subjected to the following evaluation. In addition, FIGS. 2, 3, and 6 show microscope photographs of black cured films obtained by using the photosensitive compositions of Examples 10 and 11, and Comparative Example 3, and FIGS. 7 to 11 show microscope photographs of black cured films obtained by using the photosensitive compositions of Examples 2-11, 2-13, 2-14, 2-17, and 2-18.
as §1

[7] = Transmittance of transparent cured film; format: physicochemical; settings: cured at exposure energy quantity 80 mJ/cm^2
Method: Transparent cured films were formed by using the photosensitive compositions obtained in Examples 1 to 9, Examples 2-1 to 2-10, and Comparative Examples 1 and 2 in the same manner as in the evaluation 1 except that the exposure energy quantity was set to 80 mJ/cm^2. The transmittance (%) of each of the resultant transparent cured films at 400 nm and the average transmittance (%) thereof in the range of from 400 to 700 nm were measured with a spectrophotometer (manufactured by Hitachi High-Technologies Corporation, trade name: “U-3900H”, quartz cell, optical path length; 1 cm). A higher transmittance at 400 nm means less coloring with a yellow color. In addition, a higher transmittance of a coating film means a higher transmitting property of a pattern to be formed.

[8] = exposure energy quantity 20 mJ/cm^2
[9] = exposure energy quantity 40 mJ/cm^2
[10] = exposure energy quantity 60 mJ/cm^2
[11] = exposure energy quantity 80 mJ/cm^2
[12] = exposure energy quantity 10 mJ/cm^2

| Compound | 20-μm pattern line width [1, 8] | 20-μm pattern line width [1, 9] | 20-μm pattern line width [1, 10] | 20-μm pattern line width [1, 11] | Λ max (absorption maximum wavelength) [2] [nm] | Absorption coefficient at 365 nm [2] [mL/mg/cm] | Absorption coefficient at Λ max [2] [mL/mg/cm] | Solubility Ethyl lactate [3] | Solubility PGMEA [3] | Solubility PGME [3] | Decomposition point [4] [°C] | Average transmittance (700 nm to 400 nm) Solution [5] [%] | 20-μm pattern line width ([6]; 10 mJ/cm^2) | 20-μm pattern line width ([6]; 20 mJ/cm^2) | 20-μm pattern line width ([6]; 40 mJ/cm^2) | 20-μm pattern line width ([6]; 60 mJ/cm^2) | 20-μm pattern line width ([6]; 80 mJ/cm^2) | Average transmittance (700 nm to 400 nm) Transparent cured film [7] [%] | Transmittance (400 nm) Transparent cured film [7] [%] | sensitivity to the active energy ray (in words) [1] | further results |
| --- | --- | --- | --- | --- | --- | --- | --- | --- | --- | --- | --- | --- | --- | --- | --- | --- | --- | --- | --- | --- | --- |
| CCn1c2ccc(C(=O)c3ccccc3C)cc2c2cc(/C(C)=N/OC(C)=O)ccc21 [Compound C-1, reference compound] | 20.4 | 22.1 | 22.3 | 22.4 | 298.5 | 4.4 | 94.4 | C (An amount in the range of from 2 parts by weight or more to less than 5 parts by weight of the photopolymerization initiator is dissolved.) | B (An amount in the range of from 5 parts by weight or more to less than 10 parts by weight of the photopolymerization initiator is dissolved.) | B (An amount in the range of from 5 parts by weight or more to less than 10 parts by weight of the photopolymerization initiator is dissolved.) | 216.4 | 94.2 | 18.5 | 19.0 | 20.0 | 20.9 | 21.2 | 99.8 | 98.9 |  |  |
| CCCC1(CCC)c2cc(C(=NOC(C)=O)c3ccccc3)ccc2-c2ccc([N+](=O)[O-])cc21 [Compound D-1] | 20.9 | 22.4 | 22.8 | 23.1 | 343.5 | 33.2 | 54.1 | D (Less than 2 parts by weight of the photopolymerization initiator is dissolved.) | C (An amount in the range of from 2 parts by weight or more to less than 5 parts by weight of the photopolymerization initiator is dissolved.) | D (Less than 2 parts by weight of the photopolymerization initiator is dissolved.) | 273.4 | 57.5 | 19.4 | 20.4 | 21.9 | 22.3 | 23.1 | 99.2 | 91.7 | additionally high sensitivity to the active energy ray | 20-μm pattern line width [1, 12]: 20.2 |
| CCCC1(CCC)c2cc(C(C)=NOC(C)=O)ccc2-c2ccc([N+](=O)[O-])cc21 [Compound D-3] | 21.4 | 22.5 |  | 23.8 | 345.5 | 46.3 | 67.8 | D (Less than 2 parts by weight of the photopolymerization initiator is dissolved.) | C (An amount in the range of from 2 parts by weight or more to less than 5 parts by weight of the photopolymerization initiator is dissolved.) | D (Less than 2 parts by weight of the photopolymerization initiator is dissolved.) | 272.2 | 88.9 | 19.6 | 20.6 | 21.6 | 22.1 | 22.6 | 99.8 | 95.2 | additionally high sensitivity to the active energy ray | 20-μm pattern line width ([1]; exposure energy quantity 5 mJ/cm^2): 19.6; 20-μm pattern line width [1, 12]: 20.9 |
